Data reported in patent US20250339409A1, “USES OF PAN BET INHIBITORS” (VYNE THERAPEUTICS INC., priority 2021, published 2025).
Values joined by “and” are separate entries in the source; they are usually repeats but may differ in a detail not shown here. Equal entries are not always repeated. Marks after values point to notes of the source that are not given here.

System: anti collagen antibodies induced arthritis (ACAIA)
Assay: Anti collagen antibodies induced arthritis (ACAIA) in mice, intra-articular treatment: paw thickness, arthritis clinical score, body weight;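 note: mouse arthritis induced by IV anti-collagen mAb on day 0 plus IP LPS on day 4, with body weight, caliper paw thickness and 0-4 paw score tracked against a day 0 baseline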
Conditions: for Average clinical score per day (untreated): untreated leg
[1] = Dexamethasone 1 mg/kg IA (Group 7), Av
[2] = Dexamethasone 1 mg/kg IA (Group 7), individual animals
[3] = Dexamethasone 1 mg/kg IP (Group 6), Av
[4] = Dexamethasone 1 mg/kg IP (Group 6), individual animals

SMILES: C[C@@H]1C[C@H]2[C@@H]3CCC4=CC(=O)C=C[C@]4(C)[C@@]3(F)[C@@H](O)C[C@]2(C)[C@@]1(O)C(=O)CO [dexamethasone, Dexamethasone, reference compound]
- Paw thickness of treated leg (Avg.) (1 mg/kg IP (Group 6), Day 6): 2.25** mm
- Percent change of weight per day (Av) (1 mg/kg IP (Group 6), Day 6): 87.71%
- Percent change of weight per day (individual animal) (1 mg/kg IP (Group 6), Day 6): 88.44% and 86.7% and 89.66% and 86.18% and 86.85% and 89.74% and 86.41%
- Δ clinical score untreated -treated, Avg. Delta (1 mg/kg IP (Group 6), Day 6): 0.00 points
- Clinical score of treated leg (Avg.) (1 mg/kg IP (Group 6), Day 7): 0.00** points
- Paw thickness Avg. Delta untreated -treated (1 mg/kg IP (Group 6), Day 7): 0.03 mm
- Paw thickness of treated leg (Avg.) (1 mg/kg IP (Group 6), Day 7): 2.16**** mm
- Percent change of weight per day (Av) (1 mg/kg IP (Group 6), Day 7): 88.39%
- Percent change of weight per day (individual animal) (1 mg/kg IP (Group 6), Day 7): 89.45% and 85.22% and 88.67% and 87.5576% and 88.73% and 90.26% and 88.83%
- Δ clinical score untreated -treated, Avg. Delta (1 mg/kg IP (Group 6), Day 7): 0.00 points
- Clinical score of treated leg (Avg.) (1 mg/kg IP (Group 6), Day 8): 0.00** points
- Paw thickness Avg. Delta untreated -treated (1 mg/kg IP (Group 6), Day 8): 0.10 mm
- Percent change of weight per day (Av) (1 mg/kg IP (Group 6), Day 8): 88.85%
- Percent change of weight per day (individual animal) (1 mg/kg IP (Group 6), Day 8): 89.95% and 85.22% and 87.68% and 91.24% and 88.73% and 91.28% and 87.86%
- Δ clinical score untreated -treated, Avg. Delta (1 mg/kg IP (Group 6), Day 8): 0.00 points
- Clinical score of treated leg (Avg.) (1 mg/kg IP (Group 6), Day 10): 0.14* points
- Paw thickness Avg. Delta untreated -treated (1 mg/kg IP (Group 6), Day 10): −0.04 mm
- Paw thickness of treated leg (Avg.) (1 mg/kg IP (Group 6), Day 10): 2.09** mm
- Percent change of weight per day (Av) (1 mg/kg IP (Group 6), Day 10): 88.77%
- Percent change of weight per day (individual animal) (1 mg/kg IP (Group 6), Day 10): 89.45% and 86.7% and 88.18% and 91.24% and 88.26% and 89.23% and 88.35%
- Δ clinical score untreated -treated, Avg. Delta (1 mg/kg IP (Group 6), Day 10): −0.14 points
- Clinical score of treated leg (Avg.) (1 mg/kg IP (Group 6), Day 12): 0.00* points
- Paw thickness Avg. Delta untreated -treated (1 mg/kg IP (Group 6), Day 12): −0.02 mm
- Percent change of weight per day (Av) (1 mg/kg IP (Group 6), Day 12): 90.11%
- Percent change of weight per day (individual animal) (1 mg/kg IP (Group 6), Day 12): 91.9598% and 88.18% and 91.133* percent and 90.78% and 90.14% and 89.23% and 89.32%
- Δ clinical score untreated -treated, Avg. Delta (1 mg/kg IP (Group 6), Day 12): 0.00 points
- Weight per day, Baseline [1]: 19.8 g
- Weight per day, Day 3 [1]: 19.5 g
- Weight per day, Day 4 [1]: 18.8 g
- Weight per day, Day 5 [1]: 18.1 g
- Weight per day, Day 6 [1]: 17.5 g
- Weight per day, Day 7 [1]: 17.4 g
- Weight per day, Day 8 [1]: 17.7 g
- Weight per day, Day 10 [1]: 18.3 g
- Weight per day, Baseline [2]: 19.1 g and 20.3 g and 18.6 g and 19.2 g and 20.2 g (2×) and 20.9 g
- Weight per day, Day 3 [2]: 19.1 g (2×) and 19.8 g and 17.8 g and 19.9 g and 19.7 g and 20.6 g
- Weight per day, Day 4 [2]: 18.7 g and 19.6 g and 17.3 g and 17.9 g and 19.2 g and 19.1 g and 20.1 g
- Weight per day, Day 5 [2]: 17.3 g and 18.5 g and 16.5 g and 19.2 g and 18.2 g and 17.7 g and 19 g
- Weight per day, Day 6 [2]: 16.6 g and 17.8 g and 16 g and 19.6 g and 17.7 g and 17.1 g and 17.9 g
- Weight per day, Day 7 [2]: 17 g and 16.9 g and 16 g and 20 g and 17.4 g and 15.8 g and 18.7 g
- Weight per day, Day 8 [2]: 17.2 g and 16.9 g and 16.3 g and 20.1 g and 18 g and 16.4 g and 18.9 g
- Weight per day, Day 10 [2]: 17.4 g and 18.8 g and 16.3 g and 20 g and 18.2 g (2×) and 19.4 g
- Weight per day, Baseline [3]: 20.5 g
- Weight per day, Day 3 [3]: 19.6 g
- Weight per day, Day 4 [3]: 19.8 g
- Weight per day, Day 5 [3]: 18.1 g
- Weight per day, Day 6 [3]: 18 g
- Weight per day, Day 7 [3]: 18.1 g
- Weight per day, Day 8 [3]: 18.2 g
- Weight per day, Day 10 [3]: 18.2 g
- Weight per day, Baseline [4]: 19.9 g and 20.3 g (2×) and 21.7 g and 21.3 g and 19.5 g and 20.6 g
- Weight per day, Day 3 [4]: 18.9 g and 19.1 g and 19.3 g and 20.9 g and 20.5 g and 18.8 g and 19.8 g
- Weight per day, Day 4 [4]: 19.2 g and 19.4 g and 19.7 g and 20.9 g and 20.6 g and 19 g and 19.9 g
- Weight per day, Day 5 [4]: 17.6 g and 17.5 g (2×) and 18.6 g and 18.7 g and 18.5 g and 18.4 g
- Weight per day, Day 6 [4]: 17.6 g (2×) and 18.2 g and 18.7 g and 18.5 g and 17.5 g and 17.8 g
- Weight per day, Day 7 [4]: 17.8 g and 17.3 g and 18 g and 19 g and 18.9 g and 17.6 g and 18.3 g
- Weight per day, Day 8 [4]: 17.9 g and 17.3 g and 17.8 g (2×) and 19.8 g and 18.9 g and 18.1 g
- Weight per day, Day 10 [4]: 17.8 g and 17.6 g and 17.9 g and 19.8 g and 18.8 g and 17.4 g and 18.2 g
- average arthritis score, treated limbs (intra-articular 1 mg/kg, day 12, scale 0-4): 1.3
- Average clinical score per day (untreated) (1 mg/kg IA (Group 7), Baseline): 0.00 points
- Average clinical score per day (untreated) (1 mg/kg IA (Group 7), Day 3): 0.00 points
- Average clinical score per day (untreated) (1 mg/kg IA (Group 7), Day 4): 0.00 points
- Average clinical score per day (untreated) (1 mg/kg IA (Group 7), Day 5): 0.00 points
- Average clinical score per day (untreated) (1 mg/kg IA (Group 7), Day 6): 0.57 points
- Average clinical score per day (untreated) (1 mg/kg IA (Group 7), Day 7): 0.86 points
- Average clinical score per day (untreated) (1 mg/kg IA (Group 7), Day 8): 1.71 points
- Average clinical score per day (untreated) (1 mg/kg IA (Group 7), Day 10): 1.57 points
- Average clinical score per day (untreated) (1 mg/kg IA (Group 7), Day 12): 1.71 points
- Average clinical score per day (untreated) (1 mg/kg IP (Group 6), Baseline): 0.00 points
- Average clinical score per day (untreated) (1 mg/kg IP (Group 6), Day 3): 0.00 points
- Average clinical score per day (untreated) (1 mg/kg IP (Group 6), Day 4): 0.00 points
- Average clinical score per day (untreated) (1 mg/kg IP (Group 6), Day 5): 0.00 points
- Average clinical score per day (untreated) (1 mg/kg IP (Group 6), Day 6): 0.00 points
- Average clinical score per day (untreated) (1 mg/kg IP (Group 6), Day 7): 0.00 points
- Average clinical score per day (untreated) (1 mg/kg IP (Group 6), Day 8): 0.00 points
- Average clinical score per day (untreated) (1 mg/kg IP (Group 6), Day 10): 0.00 points
- Average clinical score per day (untreated) (1 mg/kg IP (Group 6), Day 12): 0.00 points
